In paper PMC8213057, “Targeting ALK2: An Open Science Approach to Developing Therapeutics for the Treatment of Diffuse Intrinsic Pontine Glioma” (Journal of Medicinal Chemistry, 2020):
“And” between values parts separate entries of the source, which are not always exact repeats. Equal values may be shown once.

How the values were obtained:
[1] = target: T1, GLK/MAP4K3 (Homo sapiens, UniProt Q8IVH8); assay: biochemical; conditions: read-out: % enzyme activity, 1 μM; Run 1, Run 2
T1 sequence (Q8IVH8 1-894): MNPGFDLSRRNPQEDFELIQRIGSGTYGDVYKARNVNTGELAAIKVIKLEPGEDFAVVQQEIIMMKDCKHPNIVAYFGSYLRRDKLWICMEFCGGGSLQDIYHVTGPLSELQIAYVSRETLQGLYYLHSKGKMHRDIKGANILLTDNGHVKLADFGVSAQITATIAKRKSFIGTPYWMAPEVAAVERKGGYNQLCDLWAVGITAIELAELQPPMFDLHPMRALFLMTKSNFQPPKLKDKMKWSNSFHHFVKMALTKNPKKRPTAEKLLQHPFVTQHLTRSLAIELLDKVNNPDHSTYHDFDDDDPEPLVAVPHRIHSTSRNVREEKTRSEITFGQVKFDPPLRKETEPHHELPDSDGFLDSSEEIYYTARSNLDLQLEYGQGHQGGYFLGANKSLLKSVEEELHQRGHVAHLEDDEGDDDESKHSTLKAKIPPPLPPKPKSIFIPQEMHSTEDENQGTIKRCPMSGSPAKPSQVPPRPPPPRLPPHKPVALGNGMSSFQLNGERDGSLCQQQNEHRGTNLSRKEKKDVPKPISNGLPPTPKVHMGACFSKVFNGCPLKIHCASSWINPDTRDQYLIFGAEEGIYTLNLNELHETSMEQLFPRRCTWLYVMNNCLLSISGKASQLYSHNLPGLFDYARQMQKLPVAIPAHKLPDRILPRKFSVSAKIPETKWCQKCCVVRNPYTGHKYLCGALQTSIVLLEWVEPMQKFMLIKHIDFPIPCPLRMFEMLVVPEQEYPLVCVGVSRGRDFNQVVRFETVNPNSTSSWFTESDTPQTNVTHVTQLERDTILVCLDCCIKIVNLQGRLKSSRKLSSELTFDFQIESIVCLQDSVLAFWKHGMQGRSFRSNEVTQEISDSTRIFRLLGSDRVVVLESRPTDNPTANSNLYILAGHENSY

[2] = test system: SIK2
[3] = target: SSTK/TSSK6 (Homo sapiens, UniProt Q9BXA6); assay: biochemical; conditions: read-out: % enzyme activity, 1 μM; Run 1, Run 2
[4] = target: WNK1 (Homo sapiens, UniProt Q9H4A3); conditions: 1 μM; Run 1, Run 2
[5] = target: CDK4/cyclin D3 (Homo sapiens, UniProt P11802); conditions: 1 μM; Run 1, Run 2
[6] = target: T2, PLK4/SAK (Homo sapiens, UniProt O00444); conditions: 1 μM; Run 1, Run 2
T2 sequence (O00444 1-970): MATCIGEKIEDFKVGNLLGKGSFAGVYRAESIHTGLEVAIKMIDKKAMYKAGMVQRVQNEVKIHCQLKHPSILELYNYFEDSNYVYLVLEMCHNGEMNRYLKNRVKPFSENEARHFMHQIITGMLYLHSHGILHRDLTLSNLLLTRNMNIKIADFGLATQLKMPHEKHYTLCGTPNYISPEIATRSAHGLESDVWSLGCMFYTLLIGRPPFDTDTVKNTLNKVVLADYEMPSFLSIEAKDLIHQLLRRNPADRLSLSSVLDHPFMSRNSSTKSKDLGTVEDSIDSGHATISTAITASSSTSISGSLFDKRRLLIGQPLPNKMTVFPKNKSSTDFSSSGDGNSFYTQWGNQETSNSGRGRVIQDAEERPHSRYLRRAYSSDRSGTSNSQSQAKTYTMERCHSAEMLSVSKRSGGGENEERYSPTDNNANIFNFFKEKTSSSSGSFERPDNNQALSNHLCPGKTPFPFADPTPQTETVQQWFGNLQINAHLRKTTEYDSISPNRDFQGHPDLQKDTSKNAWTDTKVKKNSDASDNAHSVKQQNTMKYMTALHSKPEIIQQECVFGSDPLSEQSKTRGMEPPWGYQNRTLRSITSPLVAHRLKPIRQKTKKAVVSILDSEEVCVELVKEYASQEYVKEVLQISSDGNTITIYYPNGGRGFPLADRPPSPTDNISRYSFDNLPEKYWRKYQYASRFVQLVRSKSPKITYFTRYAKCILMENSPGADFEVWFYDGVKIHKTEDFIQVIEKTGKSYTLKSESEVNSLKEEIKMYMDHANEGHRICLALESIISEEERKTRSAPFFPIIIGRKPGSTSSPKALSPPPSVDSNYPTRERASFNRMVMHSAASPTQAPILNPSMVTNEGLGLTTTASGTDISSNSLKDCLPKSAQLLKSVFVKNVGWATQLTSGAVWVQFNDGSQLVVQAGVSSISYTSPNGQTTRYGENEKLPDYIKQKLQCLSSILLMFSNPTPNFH

[7] = target: MEK1 (Homo sapiens, UniProt Q02750); conditions: 1 μM; Run 1, Run 2
[8] = target: STK38L/NDR2 (Homo sapiens, UniProt Q9Y2H1); assay: biochemical; conditions: read-out: % enzyme activity, 1 μM; Run 1, Run 2
[9] = test system: BMPR2
[10] = target: IRAK1 (Homo sapiens, UniProt P51617); conditions: 1 μM; Run 1, Run 2
Chain of IRAK1 (P51617 whole entry): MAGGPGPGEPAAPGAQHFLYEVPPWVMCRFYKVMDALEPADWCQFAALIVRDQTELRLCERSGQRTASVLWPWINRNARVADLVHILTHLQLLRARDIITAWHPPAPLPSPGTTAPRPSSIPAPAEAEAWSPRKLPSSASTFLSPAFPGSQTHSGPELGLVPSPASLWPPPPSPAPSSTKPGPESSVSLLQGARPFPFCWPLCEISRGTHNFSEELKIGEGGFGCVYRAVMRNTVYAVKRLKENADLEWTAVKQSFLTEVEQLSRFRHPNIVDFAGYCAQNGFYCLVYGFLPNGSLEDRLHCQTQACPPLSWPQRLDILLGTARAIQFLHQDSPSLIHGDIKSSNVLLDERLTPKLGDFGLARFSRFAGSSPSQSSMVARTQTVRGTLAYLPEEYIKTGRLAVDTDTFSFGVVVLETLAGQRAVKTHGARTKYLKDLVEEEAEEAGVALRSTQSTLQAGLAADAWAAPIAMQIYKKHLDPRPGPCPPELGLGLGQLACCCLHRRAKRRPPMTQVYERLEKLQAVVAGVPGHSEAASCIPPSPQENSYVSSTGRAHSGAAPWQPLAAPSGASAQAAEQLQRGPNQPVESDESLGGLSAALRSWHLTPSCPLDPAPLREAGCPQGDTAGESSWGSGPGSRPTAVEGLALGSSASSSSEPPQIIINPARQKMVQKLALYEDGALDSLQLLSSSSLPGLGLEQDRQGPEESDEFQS

Chain of MEK1 (Q02750 whole entry): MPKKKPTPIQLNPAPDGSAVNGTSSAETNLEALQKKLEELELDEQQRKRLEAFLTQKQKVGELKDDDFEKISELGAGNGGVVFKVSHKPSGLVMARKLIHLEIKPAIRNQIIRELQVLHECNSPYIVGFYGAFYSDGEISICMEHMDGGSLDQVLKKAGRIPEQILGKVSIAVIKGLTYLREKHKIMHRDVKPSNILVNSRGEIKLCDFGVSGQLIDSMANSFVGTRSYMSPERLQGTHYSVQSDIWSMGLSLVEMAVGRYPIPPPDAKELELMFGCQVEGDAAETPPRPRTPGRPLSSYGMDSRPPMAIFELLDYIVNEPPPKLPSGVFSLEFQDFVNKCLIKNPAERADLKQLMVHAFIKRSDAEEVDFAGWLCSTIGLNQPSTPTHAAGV
Chain of WNK1 (Q9H4A3 whole entry, species assumed): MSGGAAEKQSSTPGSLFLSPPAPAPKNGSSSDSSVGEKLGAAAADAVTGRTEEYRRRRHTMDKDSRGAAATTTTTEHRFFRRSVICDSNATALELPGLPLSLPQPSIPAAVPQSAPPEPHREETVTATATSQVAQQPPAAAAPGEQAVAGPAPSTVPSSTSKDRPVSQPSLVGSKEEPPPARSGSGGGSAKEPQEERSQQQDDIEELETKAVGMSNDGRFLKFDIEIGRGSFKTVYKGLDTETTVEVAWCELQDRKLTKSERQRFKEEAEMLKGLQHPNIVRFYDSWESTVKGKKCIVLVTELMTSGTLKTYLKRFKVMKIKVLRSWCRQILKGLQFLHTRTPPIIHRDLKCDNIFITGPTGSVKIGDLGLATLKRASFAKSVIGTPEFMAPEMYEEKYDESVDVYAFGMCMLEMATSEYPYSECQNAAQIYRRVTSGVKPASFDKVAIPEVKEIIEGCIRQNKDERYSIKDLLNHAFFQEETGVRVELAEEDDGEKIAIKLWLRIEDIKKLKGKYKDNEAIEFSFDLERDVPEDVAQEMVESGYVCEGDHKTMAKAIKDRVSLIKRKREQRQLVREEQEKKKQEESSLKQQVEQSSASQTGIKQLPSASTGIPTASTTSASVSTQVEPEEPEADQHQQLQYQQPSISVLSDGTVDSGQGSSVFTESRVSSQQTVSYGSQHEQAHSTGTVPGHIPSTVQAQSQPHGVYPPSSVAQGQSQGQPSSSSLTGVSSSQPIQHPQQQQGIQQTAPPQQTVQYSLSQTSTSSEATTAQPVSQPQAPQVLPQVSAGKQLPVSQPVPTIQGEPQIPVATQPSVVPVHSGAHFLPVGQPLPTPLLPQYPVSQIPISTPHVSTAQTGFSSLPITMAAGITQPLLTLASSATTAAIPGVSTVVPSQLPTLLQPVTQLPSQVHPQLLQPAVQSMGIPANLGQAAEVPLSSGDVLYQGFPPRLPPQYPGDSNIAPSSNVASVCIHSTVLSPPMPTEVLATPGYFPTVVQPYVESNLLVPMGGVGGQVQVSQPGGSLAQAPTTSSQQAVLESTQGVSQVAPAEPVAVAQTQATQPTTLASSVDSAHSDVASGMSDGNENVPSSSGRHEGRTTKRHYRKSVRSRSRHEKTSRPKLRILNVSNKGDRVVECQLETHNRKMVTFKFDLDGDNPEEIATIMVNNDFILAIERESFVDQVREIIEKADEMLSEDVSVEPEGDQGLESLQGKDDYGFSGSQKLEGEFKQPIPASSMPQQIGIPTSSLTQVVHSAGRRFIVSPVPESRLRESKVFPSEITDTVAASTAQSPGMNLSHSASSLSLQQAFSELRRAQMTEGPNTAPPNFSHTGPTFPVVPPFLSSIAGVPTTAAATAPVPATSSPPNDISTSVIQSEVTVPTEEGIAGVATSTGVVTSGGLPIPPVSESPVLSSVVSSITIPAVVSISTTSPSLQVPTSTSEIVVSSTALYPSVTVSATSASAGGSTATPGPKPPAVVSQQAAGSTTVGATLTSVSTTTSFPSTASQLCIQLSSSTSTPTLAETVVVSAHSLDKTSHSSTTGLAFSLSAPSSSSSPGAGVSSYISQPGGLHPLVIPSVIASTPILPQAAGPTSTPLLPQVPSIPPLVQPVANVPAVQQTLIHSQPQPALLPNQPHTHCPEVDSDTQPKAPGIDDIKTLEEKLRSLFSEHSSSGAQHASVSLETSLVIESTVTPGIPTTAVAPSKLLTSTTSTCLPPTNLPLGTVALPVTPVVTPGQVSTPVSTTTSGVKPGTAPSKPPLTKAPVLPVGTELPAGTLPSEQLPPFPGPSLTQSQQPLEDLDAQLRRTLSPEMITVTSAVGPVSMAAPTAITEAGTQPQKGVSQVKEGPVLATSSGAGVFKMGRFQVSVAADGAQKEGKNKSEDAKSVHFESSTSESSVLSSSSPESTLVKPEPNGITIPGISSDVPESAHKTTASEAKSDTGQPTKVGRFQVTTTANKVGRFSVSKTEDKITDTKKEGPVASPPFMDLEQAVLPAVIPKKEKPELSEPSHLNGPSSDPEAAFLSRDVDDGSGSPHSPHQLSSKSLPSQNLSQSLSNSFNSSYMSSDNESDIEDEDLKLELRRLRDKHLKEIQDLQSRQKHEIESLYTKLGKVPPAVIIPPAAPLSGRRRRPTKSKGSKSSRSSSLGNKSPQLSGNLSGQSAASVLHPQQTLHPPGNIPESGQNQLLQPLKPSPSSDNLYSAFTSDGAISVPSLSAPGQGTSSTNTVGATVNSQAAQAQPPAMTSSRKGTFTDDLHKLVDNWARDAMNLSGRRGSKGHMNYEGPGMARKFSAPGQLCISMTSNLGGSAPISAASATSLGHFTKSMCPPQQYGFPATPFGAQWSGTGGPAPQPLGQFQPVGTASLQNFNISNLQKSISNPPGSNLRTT
Chain of STK38L/NDR2 (Q9Y2H1 whole entry): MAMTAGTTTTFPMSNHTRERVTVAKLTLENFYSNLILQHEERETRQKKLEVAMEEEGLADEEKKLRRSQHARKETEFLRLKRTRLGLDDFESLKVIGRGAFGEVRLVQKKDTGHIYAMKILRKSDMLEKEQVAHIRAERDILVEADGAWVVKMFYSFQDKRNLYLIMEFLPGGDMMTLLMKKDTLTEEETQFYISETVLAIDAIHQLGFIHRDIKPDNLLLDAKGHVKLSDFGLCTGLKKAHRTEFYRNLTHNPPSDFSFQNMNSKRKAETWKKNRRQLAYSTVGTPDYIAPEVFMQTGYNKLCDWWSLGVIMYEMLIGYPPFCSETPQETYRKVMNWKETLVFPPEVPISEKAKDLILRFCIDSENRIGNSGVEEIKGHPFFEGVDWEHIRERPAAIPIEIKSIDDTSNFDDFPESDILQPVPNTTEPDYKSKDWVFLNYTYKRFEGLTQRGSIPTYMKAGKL
Chain of CDK4/cyclin D3 (P11802 whole entry): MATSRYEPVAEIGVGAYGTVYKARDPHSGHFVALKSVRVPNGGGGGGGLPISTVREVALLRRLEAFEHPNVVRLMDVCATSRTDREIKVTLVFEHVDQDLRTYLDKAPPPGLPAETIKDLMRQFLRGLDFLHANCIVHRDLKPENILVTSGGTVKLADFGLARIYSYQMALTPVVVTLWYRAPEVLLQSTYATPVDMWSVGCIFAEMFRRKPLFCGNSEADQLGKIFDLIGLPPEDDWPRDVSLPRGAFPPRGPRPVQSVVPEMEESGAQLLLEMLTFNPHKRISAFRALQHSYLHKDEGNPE
Chain of CDK4/cyclin D3 (P30281 whole entry partner): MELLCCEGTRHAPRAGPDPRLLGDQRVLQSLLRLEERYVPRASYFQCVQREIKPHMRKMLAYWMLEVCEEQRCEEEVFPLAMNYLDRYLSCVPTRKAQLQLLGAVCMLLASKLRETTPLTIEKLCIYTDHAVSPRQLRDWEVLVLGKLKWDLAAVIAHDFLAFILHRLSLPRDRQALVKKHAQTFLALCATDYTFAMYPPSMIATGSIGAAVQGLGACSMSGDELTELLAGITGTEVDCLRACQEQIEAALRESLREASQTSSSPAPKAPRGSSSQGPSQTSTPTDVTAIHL
Chain of SSTK/TSSK6 (Q9BXA6 whole entry): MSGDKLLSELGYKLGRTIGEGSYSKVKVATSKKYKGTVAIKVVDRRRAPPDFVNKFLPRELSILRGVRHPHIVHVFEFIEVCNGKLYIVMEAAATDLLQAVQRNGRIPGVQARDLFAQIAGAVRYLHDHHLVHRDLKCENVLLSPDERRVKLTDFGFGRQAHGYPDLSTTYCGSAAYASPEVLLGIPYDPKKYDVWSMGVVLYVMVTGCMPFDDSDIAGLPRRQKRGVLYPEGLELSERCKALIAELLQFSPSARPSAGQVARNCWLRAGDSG

Compound: COc1cc(-c2cncc(-c3ccc(N4CCN(C)CC4)cc3)c2C)cc(F)c1C(N)=O [Compound 26a, 2-Fluoro-6-methoxy-4-(4-methyl-5-(4-(4-methylpiperazin-1-yl)phenyl)pyridin-3-yl)benzamide]
- remaining activity at 1 µM [1]: 88.4%
- % enzyme activity at 1 μM [2]: 32% and 30.7%
- remaining activity at 1 µM [3]: 110%
- % enzyme activity [4]: 107.33%
- % enzyme activity [5]: 96.96%
- % enzyme activity [6]: 93.32%
- % enzyme activity [7]: 97.44%
- remaining activity at 1 µM [8]: 99.4%
- % enzyme activity at 1 μM [9]: 89.1% and 88.4%
- % enzyme activity [10]: 101.36%

Compound: COc1cc(-c2cncc(-c3ccc(N4C[C@@H](C)N(C)[C@@H](C)C4)cc3)c2C)cc(F)c1C(N)=O [Compound 26c, 2-Fluoro-6-methoxy-4-(4-methyl-5-(4-((3R,5S)-3,4,5-trimethylpiperazin-1-yl)phenyl)pyridin-3-yl)benzamide]
- remaining activity at 1 µM [1]: 90.3%
- % enzyme activity at 1 μM [2]: 43.9% and 43.5%
- remaining activity at 1 µM [3]: 98.2%
- % enzyme activity [4]: 102.29%
- % enzyme activity [5]: 95.54%
- % enzyme activity [6]: 98.79%
- % enzyme activity [7]: 93.40%
- remaining activity at 1 µM [8]: 104%
- % enzyme activity at 1 μM [9]: 104% and 100%
- % enzyme activity [10]: 97.90%
